Reference: PMC8416565 (Oncotarget, 2021)

Target: T1, MAP2K7 (Homo sapiens, UniProt O14733)
T1 construct: purified human MAP2K7 (Origene)
T1 sequence (O14733 2-419): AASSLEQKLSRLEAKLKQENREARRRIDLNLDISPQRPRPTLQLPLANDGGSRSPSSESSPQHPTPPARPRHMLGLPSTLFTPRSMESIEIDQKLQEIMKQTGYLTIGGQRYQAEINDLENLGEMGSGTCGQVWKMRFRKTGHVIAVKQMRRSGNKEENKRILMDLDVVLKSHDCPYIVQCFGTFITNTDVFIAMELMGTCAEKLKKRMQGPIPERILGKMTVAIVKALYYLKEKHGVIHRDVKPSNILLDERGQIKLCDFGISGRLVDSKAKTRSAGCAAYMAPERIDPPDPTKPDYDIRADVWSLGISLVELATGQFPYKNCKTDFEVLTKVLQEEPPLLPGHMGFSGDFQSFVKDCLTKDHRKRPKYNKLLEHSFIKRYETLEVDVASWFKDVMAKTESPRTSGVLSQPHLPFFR
Experiment: in vitro kinase assay (Kinase-Glo Plus / ADP-Glo), dead JNK2 substrate, 30-min preincubation
Type: biochemical

IC50: 1.2 µM
SMILES: COc1cc(O)c2c(c1)/C=C/C[C@H](O)[C@H](O)C(=O)/C=C\C[C@H](C)OC2=O [5Z7O, 5Z-7-oxozeaenol]
